Results as given in the supplement of paper PMC10307832.

Assays:
Test in all cases: relative viability (nuclei count vs DMSO), 5 days (fraction); higher = more cells survive
[1] = compound: C1=CC=C2C(=C1)N=C(S2)C(C#N)C3=NC(=NC=C3)NCCC4=CN=CC=C4 + NC(=O)Nc1cc(-c2cccc(F)c2)sc1C(=O)N[C@H]1CCCNC1 [AZD7762] (partner 0.2 µM)
Method in brief: (§1)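 Lung cancer cell lines, seeded in 1536-well plates, were treated the following day by pin tool with a single drug or with five library-drug doses (not always all listed) in √10 steps on top of a fixed anchor-drug dose. Cells were fixed and nuclei stained in one step after 5 days, and nuclei were counted. Relative viability is the nuclei count for treated wells divided by that for vehicle wells, reported as medians of duplicate plates.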

[2] = compound: C1=CC=C2C(=C1)N=C(S2)C(C#N)C3=NC(=NC=C3)NCCC4=CN=CC=C4 + COc1cccc2cc(-c3nc([C@H]4CC[C@H](C(=O)O)CC4)n4ncnc(N)c34)[nH]c12 [OSI-027] (partner 0.5 µM)
Method in brief: as §1

[3] = compound: COc1cc2/c(=N/c3ccc(Br)cc3F)nc[nH]c2cc1OCC1CCN(C)CC1 [Vandetanib] + COc1cc2c(Oc3ccc(NC(=O)C4(C(=O)Nc5ccc(F)cc5)CC4)cc3F)ccnc2cc1OCCCN1CCOCC1 [Foretinib] (partner 0.25 µM)
Method in brief: as §1

[4] = compound: COc1cc(N2CCC(N3CCN(C)CC3)CC2)ccc1Nc1ncc(Cl)c(Nc2ccccc2S(=O)(=O)C(C)C)n1 [NVP-TAE684] + Cc1nc(Nc2ncc(C(=O)Nc3c(C)cccc3Cl)s2)cc(N2CCN(CCO)CC2)n1 [Dasatinib] (partner 0.075 µM)
Method in brief: as §1

## HCC-78
[1]; first compound 0.005 µM
  relative viability: 0.619
[1]; first compound 0.01581 µM
  relative viability: 0.593
[1]; first compound 0.05 µM
  relative viability: 0.739
[1]; first compound 0.1581 µM
  relative viability: 0.697
[1]; first compound 0.5 µM
  relative viability: 0.576
[2]; first compound 0.005 µM
  relative viability: 0.367
[2]; first compound 0.01581 µM
  relative viability: 0.35
[2]; first compound 0.05 µM
  relative viability: 0.332
[2]; first compound 0.1581 µM
  relative viability: 0.438
[2]; first compound 0.5 µM
  relative viability: 0.36
[3]; first compound 0.02 µM
  relative viability: 0.546
[3]; first compound 0.06325 µM
  relative viability: 0.606
[3]; first compound 0.2 µM
  relative viability: 0.524
[3]; first compound 0.6325 µM
  relative viability: 0.57
[3]; first compound 2 µM
  relative viability: 0.432
[4]; first compound 0.2 µM
  relative viability: 0.298
[4]; first compound 0.6325 µM
  relative viability: 0.24
[4]; first compound 2 µM
  relative viability: 0.306

## NCI-H1355
[1]; first compound 0.005 µM
  relative viability: 0.702
[1]; first compound 0.01581 µM
  relative viability: 0.698
[1]; first compound 0.05 µM
  relative viability: 0.675
[1]; first compound 0.1581 µM
  relative viability: 0.967
[1]; first compound 0.5 µM
  relative viability: 0.559
[2]; first compound 0.005 µM
  relative viability: 0.402
[2]; first compound 0.01581 µM
  relative viability: 0.348
[2]; first compound 0.05 µM
  relative viability: 0.341
[2]; first compound 0.1581 µM
  relative viability: 0.411
[2]; first compound 0.5 µM
  relative viability: 0.369
[3]; first compound 0.02 µM
  relative viability: 0.94
[3]; first compound 0.06325 µM
  relative viability: 0.981
[3]; first compound 0.2 µM
  relative viability: 1
[3]; first compound 0.6325 µM
  relative viability: 0.936
[3]; first compound 2 µM
  relative viability: 0.946
[4]; first compound 0.2 µM
  relative viability: 0.673
[4]; first compound 0.6325 µM
  relative viability: 0.534
[4]; first compound 2 µM
  relative viability: 0.372

## NCI-H1993
[1]; first compound 0.005 µM
  relative viability: 0.664
[1]; first compound 0.01581 µM
  relative viability: 0.749
[1]; first compound 0.05 µM
  relative viability: 1.03
[1]; first compound 0.1581 µM
  relative viability: 1.01
[1]; first compound 0.5 µM
  relative viability: 0.7
[2]; first compound 0.005 µM
  relative viability: 0.579
[2]; first compound 0.01581 µM
  relative viability: 0.555
[2]; first compound 0.05 µM
  relative viability: 0.637
[2]; first compound 0.1581 µM
  relative viability: 0.626
[2]; first compound 0.5 µM
  relative viability: 0.585
[3]; first compound 0.02 µM
  relative viability: 0.836
[3]; first compound 0.06325 µM
  relative viability: 0.78
[3]; first compound 0.2 µM
  relative viability: 0.557
[3]; first compound 0.6325 µM
  relative viability: 0.788
[3]; first compound 2 µM
  relative viability: 0.64
[4]; first compound 0.2 µM
  relative viability: 0.499
[4]; first compound 0.6325 µM
  relative viability: 0.548
[4]; first compound 2 µM
  relative viability: 0.581

## NCI-H1734
[1]; first compound 0.005 µM
  relative viability: 0.443
[1]; first compound 0.01581 µM
  relative viability: 0.658
[1]; first compound 0.05 µM
  relative viability: 0.615
[1]; first compound 0.1581 µM
  relative viability: 0.566
[1]; first compound 0.5 µM
  relative viability: 0.514
[2]; first compound 0.01581 µM
  relative viability: 0.571
[2]; first compound 0.05 µM
  relative viability: 0.546
[2]; first compound 0.1581 µM
  relative viability: 0.669
[2]; first compound 0.5 µM
  relative viability: 0.556
[3]; first compound 0.02 µM
  relative viability: 0.825
[3]; first compound 0.06325 µM
  relative viability: 0.913
[3]; first compound 0.2 µM
  relative viability: 0.169
[3]; first compound 0.6325 µM
  relative viability: 0.903
[3]; first compound 2 µM
  relative viability: 0.771
[4]; first compound 0.2 µM
  relative viability: 0.47
[4]; first compound 0.6325 µM
  relative viability: 0.362
[4]; first compound 2 µM
  relative viability: 0.194

## EMC-BAC-2
[1]; first compound 0.005 µM
  relative viability: 1.13
[1]; first compound 0.01581 µM
  relative viability: 1.04
[1]; first compound 0.05 µM
  relative viability: 0.945
[1]; first compound 0.1581 µM
  relative viability: 1.22
[1]; first compound 0.5 µM
  relative viability: 0.875
[2]; first compound 0.005 µM
  relative viability: 0.364
[2]; first compound 0.01581 µM
  relative viability: 0.37
[2]; first compound 0.05 µM
  relative viability: 0.38
[2]; first compound 0.1581 µM
  relative viability: 0.394
[2]; first compound 0.5 µM
  relative viability: 0.366
[3]; first compound 0.02 µM
  relative viability: 0.996
[3]; first compound 0.06325 µM
  relative viability: 0.934
[3]; first compound 0.2 µM
  relative viability: 0.307
[3]; first compound 0.6325 µM
  relative viability: 0.965
[3]; first compound 2 µM
  relative viability: 0.958
[4]; first compound 0.2 µM
  relative viability: 0.291
[4]; first compound 0.6325 µM
  relative viability: 0.292
[4]; first compound 2 µM
  relative viability: 0.199

## NCI-H1915
[1]; first compound 0.01581 µM
  relative viability: 0.679
[1]; first compound 0.05 µM
  relative viability: 0.698
[1]; first compound 0.1581 µM
  relative viability: 0.693
[1]; first compound 0.5 µM
  relative viability: 0.699
[2]; first compound 0.005 µM
  relative viability: 0.623
[2]; first compound 0.01581 µM
  relative viability: 0.583
[2]; first compound 0.05 µM
  relative viability: 0.619
[2]; first compound 0.1581 µM
  relative viability: 0.671
[2]; first compound 0.5 µM
  relative viability: 0.584
[3]; first compound 0.02 µM
  relative viability: 1.08
[3]; first compound 0.06325 µM
  relative viability: 1.11
[3]; first compound 0.2 µM
  relative viability: 1.11
[3]; first compound 0.6325 µM
  relative viability: 1.08
[3]; first compound 2 µM
  relative viability: 1.06
[4]; first compound 0.2 µM
  relative viability: 0.363
[4]; first compound 0.6325 µM
  relative viability: 0.294
[4]; first compound 2 µM
  relative viability: 0.255

## NCI-H358
[1]; first compound 0.005 µM
  relative viability: 0.579
[1]; first compound 0.01581 µM
  relative viability: 0.492
[1]; first compound 0.1581 µM
  relative viability: 0.592
[1]; first compound 0.5 µM
  relative viability: 0.496
[2]; first compound 0.005 µM
  relative viability: 0.726
[2]; first compound 0.01581 µM
  relative viability: 0.749
[2]; first compound 0.05 µM
  relative viability: 0.805
[2]; first compound 0.1581 µM
  relative viability: 0.913
[2]; first compound 0.5 µM
  relative viability: 0.739
[3]; first compound 0.02 µM
  relative viability: 0.657
[3]; first compound 0.06325 µM
  relative viability: 0.716
[3]; first compound 0.2 µM
  relative viability: 0.649
[3]; first compound 0.6325 µM
  relative viability: 0.646
[3]; first compound 2 µM
  relative viability: 0.332
[4]; first compound 0.2 µM
  relative viability: 0.162
[4]; first compound 0.6325 µM
  relative viability: 0.136
[4]; first compound 2 µM
  relative viability: 0.112

## CAL-12T
[1]; first compound 0.005 µM
  relative viability: 0.571
[1]; first compound 0.01581 µM
  relative viability: 0.575
[1]; first compound 0.05 µM
  relative viability: 0.628
[1]; first compound 0.1581 µM
  relative viability: 0.608
[1]; first compound 0.5 µM
  relative viability: 0.543
[2]; first compound 0.005 µM
  relative viability: 0.811
[2]; first compound 0.01581 µM
  relative viability: 0.536
[2]; first compound 0.05 µM
  relative viability: 0.525
[2]; first compound 0.1581 µM
  relative viability: 0.534
[2]; first compound 0.5 µM
  relative viability: 0.427
[3]; first compound 0.02 µM
  relative viability: 1.13
[3]; first compound 0.06325 µM
  relative viability: 1.05
[3]; first compound 0.2 µM
  relative viability: 0.217
[3]; first compound 0.6325 µM
  relative viability: 1.31
[3]; first compound 2 µM
  relative viability: 0.552
[4]; first compound 0.2 µM
  relative viability: 0.227
[4]; first compound 0.6325 µM
  relative viability: 0.111
[4]; first compound 2 µM
  relative viability: 0.0731

## NCI-H2085
[1]; first compound 0.005 µM
  relative viability: 0.833
[1]; first compound 0.01581 µM
  relative viability: 0.956
[1]; first compound 0.05 µM
  relative viability: 1.02
[1]; first compound 0.1581 µM
  relative viability: 1.07
[1]; first compound 0.5 µM
  relative viability: 0.905
[2]; first compound 0.005 µM
  relative viability: 0.675
[2]; first compound 0.01581 µM
  relative viability: 0.738
[2]; first compound 0.05 µM
  relative viability: 0.57
[2]; first compound 0.1581 µM
  relative viability: 0.931
[2]; first compound 0.5 µM
  relative viability: 0.663
[3]; first compound 0.02 µM
  relative viability: 0.935
[3]; first compound 0.06325 µM
  relative viability: 0.852
[3]; first compound 0.2 µM
  relative viability: 0.351
[3]; first compound 0.6325 µM
  relative viability: 0.993
[3]; first compound 2 µM
  relative viability: 0.836
[4]; first compound 0.2 µM
  relative viability: 0.187
[4]; first compound 0.6325 µM
  relative viability: 0.16
[4]; first compound 2 µM
  relative viability: 0.162
